In patent publication US20140343000A1 (priority 2011, published 2014):
pEC50: −log10 of the molar value.

system: recombinant NL4-3 virus (Renilla luciferase in nef, Gag P373S; NLRluc) in MT-2 cells; assay: whole plant or invertebrate; assay type: cell-based, HIV; settings: Renilla, NL43, luciferase activity in cells infected for 4-5 days with NLRluc recombinants, serial dilutions of inhibitor; class symbols (key in Table 1); read-out: EC50
In short: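 Luciferase signal is the read-out: after 4-5 days of infection in the presence of serially diluted compound, MT-2 cells are lysed with a premix of lysis buffer, luciferase reagent and Stop & Glo substrate, and luminescence is read immediately.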

| SMILES | pEC50 |
| --- | --- |
| C=C(C)[C@@H]1CC[C@]2(Nc3nc(C)c(C)s3)CC[C@]3(C)[C@H](CC[C@@H]4[C@@]5(C)CC=C(c6ccc(C(=O)O)cc6)C(C)(C)[C@@H]5CC[C@]43C)[C@@H]12 [Example 183, 4-((1R,3aS,5aR,5bR,7aR,11aS,11bR,13aR,13bR)-3a-(4,5-dimethylthiazol-2-ylamino)-5a,5b,8,8,11a-pentamethyl-1-(prop-1-en-2-yl)-2,3,3a,4,5,5a,5b,6,7,7a,8,11,11a,11b,12,13,13a,13b-octadecahydro-1H-cyclopenta[a]chrysen-9-yl)benzoic acid] | > 7.00 |
| C=C(C)[C@@H]1CC[C@]2(NC(=O)CN(C)C3CCS(=O)(=O)C3)CC[C@]3(C)[C@H](CC[C@@H]4[C@@]5(C)CC=C(c6ccc(C(=O)O)cc6)C(C)(C)[C@@H]5CC[C@]43C)[C@@H]12 (stereo partly drawn) [Example 100, benzoic acid, 4-[(1R,3aS,5aR,5bR,7aR,11aS,11bR,13aR,13bR)-2,3,3a,4,5,5a,5b,6,7,7a,8,11,11a,11b,12,13,13a,13b-octadecahydro-5a,5b,8,8,11a-pentamethyl-1-(1-methylethenyl)-3a-[[[methyl(tetrahydro-1,1-dioxido-3-thienyl)amino]acetyl]amino]-1H-cyclopenta[a]chrysen-9-yl]] | > 7.00 |
| CC(C)[C@@H]1CC[C@]2(NCCN3CCN(S(C)(=O)=O)CC3)CC[C@]3(C)[C@H](CC[C@@H]4[C@@]5(C)CC[C@H](c6ccc(C(=O)O)cc6)C(C)(C)[C@@H]5CC[C@]43C)[C@@H]12 [Example B16, 4-((1S,3aS,5aR,5bR,7aS,9S,11aS,11bR,13aR,13bR)-1-isopropyl-5a,5b,8,8,11a-pentamethyl-3a-((2-(4-(methylsulfonyl)piperazin-1-yl)ethyl)amino)icosahydro-1H-cyclopenta[a]chrysen-9-yl)benzoic acid] | > 7.00 |
| C=C(C)[C@@H]1CC[C@]2(NC(=O)CN3CCN(C(C)C)CC3)CC[C@]3(C)[C@H](CC[C@@H]4[C@@]5(C)CC=C(c6ccc(C(=O)O)cc6)C(C)(C)[C@@H]5CC[C@]43C)[C@@H]12 [Example 96, 4-((1R,3aS,5aR,5bR,7aR,11aS,11bR,13aR,13bR)-3a-(2-(4-isopropylpiperazin-1-yl)acetamido)-5a,5b,8,8,11a-pentamethyl-1-(prop-1-en-2-yl)-2,3,3a,4,5,5a,5b,6,7,7a,8,11,11a,11b,12,13,13a,13b-octadecahydro-1H-cyclopenta[a]chrysen-9-yl)benzoic acid] | > 7.00 |
| C=C(C)[C@@H]1CC[C@]2(NC(=O)NCCN(C)S(C)(=O)=O)CC[C@]3(C)[C@H](CC[C@@H]4[C@@]5(C)CC=C(c6ccc(C(=O)O)cc6)C(C)(C)[C@@H]5CC[C@]43C)[C@@H]12 [Example 50, 4-((1R,3aS,5aR,5bR,7aR,11aS,11bR,13aR,13bR)-5a,5b,8,8,11a-pentamethyl-3a-(3-(2-(N-methylmethylsulfonamido)ethyl)ureido)-1-(prop-1-en-2-yl)-2,3,3a,4,5,5a,5b,6,7,7a,8,11,11a,11b,12,13,13a,13b-octadecahydro-1H-cyclopenta[a]chrysen-9-yl)benzoic acid] | > 7.00 |
| C=C(C)[C@@H]1CC[C@]2(NC(=O)N3CCN(C(C)=O)CC3)CC[C@]3(C)[C@H](CC[C@@H]4[C@@]5(C)CC=C(c6ccc(C(=O)O)cc6)C(C)(C)[C@@H]5CC[C@]43C)[C@@H]12 [Example 41, 4-((1R,3aS,5aR,5bR,7aR,11aS,11bR,13aR,13bR)-3a-(4-acetylpiperazine-1-carboxamido)-5a,5b,8,8,11a-pentamethyl-1-(prop-1-en-2-yl)-2,3,3a,4,5,5a,5b,6,7,7a,8,11,11a,11b,12,13,13a,13b-octadecahydro-1H-cyclopenta[a]chrysen-9-yl)benzoic acid] | > 7.00 |
| C=C(C)[C@@H]1CC[C@]2(NCCN3CCN(S(=O)(=O)c4ccc(CC)cc4)CC3)CC[C@]3(C)[C@H](CC[C@@H]4[C@@]5(C)CC=C(c6ccc(C(=O)O)cc6)C(C)(C)[C@@H]5CC[C@]43C)[C@@H]12 [Example B40, 4-((1R,3aS,5aR,5bR,7aR,11aS,11bR,13aR,13bR)-3a-((2-(4-((4-ethylphenyl)sulfonyl)piperazin-1-yl)ethyl)amino)-5a,5b,8,8,11a-pentamethyl-1-(prop-1-en-2-yl)-2,3,3a,4,5,5a,5b,6,7,7a,8,11,11a,11b,12,13,13a,13b-octadecahydro-1H-cyclopenta[a]chrysen-9-yl)benzoic acid] | > 7.00 |
| C=C(C)[C@@H]1CC[C@]2(NC(=O)N3CCN(C4CCN(C)CC4)CC3)CC[C@]3(C)[C@H](CC[C@@H]4[C@@]5(C)CC=C(c6ccc(C(=O)O)cc6)C(C)(C)[C@@H]5CC[C@]43C)[C@@H]12 [Example 40, 4-((1R,3aS,5aR,5bR,7aR,11aS,11bR,13aR,13bR)-5a,5b,8,8,11a-pentamethyl-3a-(4-(1-methylpiperidin-4-yl)piperazine-1-carboxamido)-1-(prop-1-en-2-yl)-2,3,3a,4,5,5a,5b,6,7,7a,8,11,11a,11b,12,13,13a,13b-octadecahydro-1H-cyclopenta[a]chrysen-9-yl)benzoic acid] | > 7.00 |
| C=C(C)[C@@H]1CC[C@]2(NC(=O)Cc3ncccn3)CC[C@]3(C)[C@H](CC[C@@H]4[C@@]5(C)CC=C(c6ccc(C(=O)O)cc6)C(C)(C)[C@@H]5CC[C@]43C)[C@@H]12 [Example 126, 4-((1R,3aS,5aR,5bR,7aR,11aS,11bR,13aR,13bR)-5a,5b,8,8,11a-pentamethyl-1-(prop-1-en-2-yl)-3a-(2-(pyrimidin-2-yl)acetamido)-2,3,3a,4,5,5a,5b,6,7,7a,8,11,11a,11b,12,13,13a,13b-octadecahydro-1H-cyclopenta[a]chrysen-9-yl)benzoic acid] | > 7.00 |
| C=C(C)[C@@H]1CC[C@]2(N)CC[C@]3(C)[C@H](CC[C@@H]4[C@@]5(C)CC=C(c6ccc(C(=O)O)cc6)C(C)(C)[C@@H]5CC[C@]43C)[C@@H]12 [Example 1, 4-((1R,3aS,5aR,5bR,7aR,11aS,11bR,13aR,13bR)-3a-amino-5a,5b,8,8,11a-pentamethyl-1-(prop-1-en-2-yl)-2,3,3a,4,5,5a,5b,6,7,7a,8,11,11a,11b,12,13,13a,13b-octadecahydro-1H-cyclopenta[a]chrysen-9-yl)benzoic acid] | > 7.00 |
| C=C(C)[C@@H]1CC[C@]2(NC(=O)CNc3ccc(F)cc3)CC[C@]3(C)[C@H](CC[C@@H]4[C@@]5(C)CC=C(c6ccc(C(=O)O)cc6)C(C)(C)[C@@H]5CC[C@]43C)[C@@H]12 [Example 125, 4-((1R,3aS,5aR,5bR,7aR,11aS,11bR,13aR,13bR)-3a-(2-(4-fluorophenylamino)acetamido)-5a,5b,8,8,11a-pentamethyl-1-(prop-1-en-2-yl)-2,3,3a,4,5,5a,5b,6,7,7a,8,11,11a,11b,12,13,13a,13b-octadecahydro-1H-cyclopenta[a]chrysen-9-yl)benzoic acid] | > 7.00 |
| C=C(C)[C@@H]1CC[C@]2(NCCN3CCN(S(=O)(=O)CCCC)CC3)CC[C@]3(C)[C@H](CC[C@@H]4[C@@]5(C)CC=C(c6ccc(C(=O)O)cc6)C(C)(C)[C@@H]5CC[C@]43C)[C@@H]12 [Example B39, 4-((1R,3aS,5aR,5bR,7aR,11aS,11bR,13aR,13bR)-3a-((2-(4-(butylsulfonyl)piperazin-1-yl)ethyl)amino)-5a,5b,8,8,11a-pentamethyl-1-(prop-1-en-2-yl)-2,3,3a,4,5,5a,5b,6,7,7a,8,11,11a,11b,12,13,13a,13b-octadecahydro-1H-cyclopenta[a]chrysen-9-yl)benzoic acid] | > 7.00 |
| C=C(C)[C@@H]1CC[C@]2(NC(=O)C(CC3CCCCC3)N3CCS(=O)(=O)CC3)CC[C@]3(C)[C@H](CC[C@@H]4[C@@]5(C)CC=C(c6ccc(C(=O)O)cc6)C(C)(C)[C@@H]5CC[C@]43C)[C@@H]12 (stereo partly drawn) [Example 99, benzoic acid, 4-[(1R,3aS,5aR,5bR,7aR,11aS,11bR,13aR,13bR)-3a-[[3-cyclohexyl-2-(1,1-dioxido-4-thiomorpholinyl)-1-oxopropyl]amino]-2,3,3a,4,5,5a,5b,6,7,7a,8,11,11a,11b,12,13,13a,13b-octadecahydro-5a,5b,8,8,11a-pentamethyl-1-(1-methylethenyl)-1H-cyclopenta[a]chrysen-9-yl]] | > 7.00 |

same assay, conditions: Renilla, NL43, luciferase activity in cells infected for 4-5 days with NLRluc recombinants, serial dilutions of inhibitor; numeric values; read-out: EC50

| SMILES | pEC50 |
| --- | --- |
| C=C(C)[C@@H]1CC[C@]2(NC(=O)Cn3ccc4ccccc43)CC[C@]3(C)[C@H](CC[C@@H]4[C@@]5(C)CC=C(c6ccc(C(=O)O)cc6)C(C)(C)[C@@H]5CC[C@]43C)[C@@H]12 [Example 90, 4-((1R,3aS,5aR,5bR,7aR,11aS,11bR,13aR,13bR)-3a-(2-(1H-indol-1-yl)acetamido)-5a,5b,8,8,11a-pentamethyl-1-(prop-1-en-2-yl)-2,3,3a,4,5,5a,5b,6,7,7a,8,11,11a,11b,12,13,13a,13b-octadecahydro-1H-cyclopenta[a]chrysen-9-yl)benzoic acid] | 7.70 |
| C=C(C)[C@@H]1CC[C@]2(NCCN3CCN(S(=O)(=O)c4cccc(OC)c4)CC3)CC[C@]3(C)[C@H](CC[C@@H]4[C@@]5(C)CC=C(c6ccc(C(=O)O)cc6)C(C)(C)[C@@H]5CC[C@]43C)[C@@H]12 [Example B45, 4-((1R,3aS,5aR,5bR,7aR,11aS,11bR,13aR,13bR)-3a-((2-(4-((3-methoxyphenyl)sulfonyl)piperazin-1-yl)ethyl)amino)-5a,5b,8,8,11a-pentamethyl-1-(prop-1-en-2-yl)-2,3,3a,4,5,5a,5b,6,7,7a,8,11,11a,11b,12,13,13a,13b-octadecahydro-1H-cyclopenta[a]chrysen-9-yl)benzoic acid] | 8.40 |
